According to patent publication US20040072750A1, “Compounds and methods for the modulation of CD154” (priority 2001, published 2004):

Key:
Assay type in all cases: cell-based, human
[1] = test system: washed platelets; experiment: Cleavage of CD40L into sCD40L in platelet lysates (immunoblotting); conditions: TRAP 5 μM; activated or aggregated platelets; FIG. 4
Protocol: (§1) Collected blood was centrifuged at 160×g for 20 minutes at room temperature (Beckman GP) and the PRP layer was collected. PRP was then centrifuged at 1100×g for 10 minutes to sediment platelets. Platelets were washed twice by repeat suspending and pelleting in CGS (13 mM trisodium citrate, 120 mM NaCl, 30 mM Dextrose, pH 7.0) containing 0.05 μg/ml PGI2 for the first wash. The final suspension of platelets (5×10^8/ml) was in Tyrode's Hepes.
Cleavage of the full length CD40L (32 kD) yields the 18 kD soluble from (sCD40L). 500 μl of Washed platelets were gently mixed with TRAP (5 μM) to initiate the platelet activation. Metalloproteinase inhibitors GM6001 (50 μM, Calbiochem) or DMSO were added to washed platelets, and incubated at 37° C. with or without rocking for 30 minutes. […] Platelets were removed from suspension by centrifugation for 10 minutes at 15,000×g, 4° C. and the resulting platelet pellets were dissolved in the loading buffer. The proteins in the platelet lysates were resolved with SDS-PAGE, transferred onto nitrocellulose membrane, and blotted with anti-CD40L antibody (MK13A4, Alexis).

[2] = test system: washed platelets; experiment: sCD40L release from TRAP activated, not aggregated washed platelets (ELISA); conditions: for release of sCD40L from TRAP activated, but not aggregated, platelets: 50 μM, FIG. 3; for release of sCD154 from TRAP-stimulated platelets: 5-50 μM inhibitor, 5 μM TRAP, no rocking
Protocol: as §1, with “Washed platelets were prepared from blood drawn into ⅙^th volume of ACD containing (85 mM sodium citrate, 111 mM dextrose and 71 mM citric acid) with 0.05 μg/ml PGI2. Collected” for “Collected”
The release of sCD40L from the activated platelets was determined as follows: 500 μL of washed platelets were gently mixed 5 μM of TRAP and incubated at 37° C. without rocking for 30 min. Under this condition, platelets were activated but not aggregated. 5-50 μM of metalloproteinase inhibitors GM6001 (Galardin, Calbiochem) or TAPI-1 (Peptides International) were added to the washed platelets before the addition of TRAP. Platelets were removed from suspension by centrifugation for 10 minutes at 15,000×g, 4° C. and the resulting supernatants were collected. The levels of sCD154 were measured by ELISA.

[3] = test system: washed platelets; experiment: TRAP6-induced aggregation of washed platelets (aggregometer); conditions: 1 μM TRAP6; 0.1-1.0 μg/ml TIMP-2 or 5-50 μM TAPI-1
Protocol: as §1, with “Washed platelets were prepared from blood drawn into ⅙ th volume of ACD containing (85 mM sodium citrate, 111 mM dextrose and 71 mM citric acid) with 0.05 μg/ml PGI2. Collected” for “Collected”, “resuspending” for “repeat suspending and pelleting”, “(3×10^8/ml)” for “(5×10^8/ml)”
a. For platelet aggregation studies, 500 μL of washed platelets were allowed to stir in a Chrono-Log Aggregometer before the addition of 1 μM TRAP6 to initiate aggregation. Subsequent samples included various metalloproteinase inhibitors added to washed platelets before the addition of TRAP6; 0.1-1.0 μg/ml TIMP-2 (Calbiochem) or 5-50 μM TAPI-1 (Peptides International). Aggregation proceeded for 5 minutes and the amplitude of each aggregometer tracing was calculated by Aggro-Link software.

[4] = test system: washed platelets; experiment: sCD154 release from TRAP6-stimulated washed platelets with rocking (ELISA); conditions: rocking 30 minutes, 37° C.
Protocol: as §1, with “Washed platelets were prepared from blood drawn into ⅙ th volume of ACD containing (85 mM sodium citrate, 111 mM dextrose and 71 mM citric acid) with 0.05 μg/ml PGI2. Collected” for “Collected”, “resuspending” for “repeat suspending and pelleting”, “(3×10^8/ml)” for “(5×10^8/ml)”
b. CD154 determinations were made as follows: Washed platelets were incubated at 37° C. with various concentrations of TIMP-2 and TAPI-1 (see above) while rocking on a Nutator for 30 minutes. Platelets or platelet aggregates were removed from suspension by centrifugation for 10 minutes at 15,000×g, 4° C. and the resulting supernatants were collected. The levels of sCD154 were measured by ELISA.

CNC(=O)[C@H](Cc1c[nH]c2ccccc12)NC(=O)[C@@H](CC(=O)NO)CC(C)C [GM6001, N-[(2R)-2-(Hydroxamidocarbonylmethyl)-4-methylpentanoyl]-L-tryptophan methylamide]
inhibited: cleavage of the full length CD40L to the 18 kD soluble form [1] | release of sCD40L from TRAP activated, but not aggregated, platelets [2] | release of sCD154 from TRAP-stimulated platelets [2]

CC(C)C[C@H](CC(=O)NO)C(=O)N[C@@H](Cc1ccc2ccccc2c1)C(=O)N[C@@H](C)C(=O)NCCN [TAPI-1, HONHCOCH2CH(CH2CH(CH3)2-CO-NaI-Ala-NHCH2CH2NH2]
inhibited: platelet aggregation induced by sub-optimal concentrations of TRAP6 [3] | release of sCD154 from TRAP6-stimulated platelets [4] | release of sCD40L from TRAP activated, but not aggregated, platelets [2] | release of sCD154 from TRAP-stimulated platelets [2]
